From patent publication US8598374B2, “GPR120 receptor agonists and uses thereof” (Metabolex, Inc, priority 2008, dated 2013)

Target: T1, human GPR120 (Homo sapiens, UniProt Q5NUL3)
T1 construct: Flag (DYKDDDDK) (N); host or cells: HEK293 cells co-expressing Gqi5
T1 sequence (Q5NUL3 1-361): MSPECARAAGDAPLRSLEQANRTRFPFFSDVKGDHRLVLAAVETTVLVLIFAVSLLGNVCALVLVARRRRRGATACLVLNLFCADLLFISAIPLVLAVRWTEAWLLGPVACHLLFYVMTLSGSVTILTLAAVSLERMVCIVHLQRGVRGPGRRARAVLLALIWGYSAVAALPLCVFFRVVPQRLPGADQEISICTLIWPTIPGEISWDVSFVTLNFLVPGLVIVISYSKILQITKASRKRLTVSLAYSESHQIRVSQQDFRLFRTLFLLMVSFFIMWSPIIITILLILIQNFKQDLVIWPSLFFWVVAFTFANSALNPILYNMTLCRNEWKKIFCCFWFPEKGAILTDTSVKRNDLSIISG
Experiment: Intracellular Ca2+ assay (FLIPR Calcium 4, Flexstation) in human GPR120 stable cell line
Format: cell-based
Settings: % activity at 2.5 μM compared to the maximal activity of the compound of Example 25 at 2.5 μM; HEK293 cells co-expressing Gqi5
Experimental: Human GPR120 stable cell line was purchased from Multispan Inc (26219 Eden Landing Road, Hayward, Calif. 94545). This GPR120 cell line was generated in HEK293 cells co-expressing Gqi5. In this cell line, the Flag epitope tag (DYKDDDDK) was fused to the amino terminus of human GPR120 protein.
The concentration of intracellular Ca^2+ was measured as described below. Human GPR120 cells were plated in 96 well plates (Poly-D-Lysine coated black/clear Plate, Greiner Bio-One) at 70,000 cells per well and cultured overnight in conditions of 37° C. and 5% CO2. A Ca^2+ assay dye stock solution was prepared by adding 10 mL of assay buffer (HBSS/20 mM HEPES, pH 7.4) to FLIPR Calcium 4 Assay Bulk Kit (Molecular Devices). The 10 mL of Ca^2+ assay dye solution was prepared by further diluting 0.5 mL of Ca^2+ assay dye stock solution with 10 mL of assay buffer. The medium of the cells was removed and immediately 100 μL of the Ca^2+ assay dye solution was dispensed into each well followed by incubation at 37° C. and 5% CO2 for 50 minutes to incorporate the Ca^2+ dye into the cells. The cell plate was then placed in the Flexstation (Molecular Devices) for 20 minutes at 37° C. Compounds were dissolved in 100% DMSO and diluted to desired concentrations with assay buffer and placed in the Flexstation simultaneously with the cell plate for 20 minute incubation at 37° C. prior to reading. Fluorescence intensity was measured immediately following compound addition (25 μL/well) on the Flexstation at an excitation wavelength of 485 nm and an emission wavelength of 525 with 515 nm auto cutoff. The resulting increase in fluorescence intensities corresponds to increases in intracellular Ca^2+ levels.
Compounds were dissolved in 100% DMSO to a concentration of 20 mM to provide stock solutions. To determine activity against human GPR120, compounds were added with human GPR120 stably expressing cells (described above), at eight desired concentrations ranging from 0.00001 to 20 μM, in 96 well plates and fluorescence intensities were measured for 90 seconds with 2-second intervals. An EC50 value (concentration of the GPR120 agonist where 50% of the agonist's maximal activity is observed) was calculated using the changes (Max-Min) of fluorescence intensity.
To determine percent activity for a tested compound, the fluorescence intensity value obtained at a particular concentration were compared to the maximal fluorescence intensity value obtained for reference compound GW9508 (4-[[(3-phenoxyphenyl)methyl]amino]benzene propanoic acid; British Journal of Pharmacology 2006 148, 619-628) or the compound of Example 25. When GW9508 was used as the reference compound, the maximal activity of GW9508 at 6.7 μM was designated as 100% activity. When the compound of Example 25 was used as the reference compound, the maximal activity of the compound of Example 25 at 2.5 μM was designated as 100% activity. Typically, the GW9508 activity reached a maximum at a concentration of approximately 6.7 μM and typically the compound of Example 25 reached a maximum activity at approximately 2.5 μM.

Row | SMILES | % Activity (Ex. 25 Reference Compound) [%]
1 | CC(Cc1ccc(OCc2cc(-n3cnnn3)cc3c2OC(C)(C)C3)cc1)C(=O)O (centres unmarked) [Example 90, 3-(4-((2,2-dimethyl-5-(1H-tetrazol-1-yl)-2,3-dihydrobenzofuran-7-yl)methoxy)phenyl)-2-methylpropanoic acid] | 75.86
2 | CC(Cc1cccc(OCc2cc(Cl)cc3c2OC(C)(C)C3)c1)C(=O)O (centres unmarked) [Example 251, 3-(3-((5-chloro-2,2-dimethyl-2,3-dihydrobenzofuran-7-yl)methoxy)phenyl)-2-methylpropanoic acid] | 61.14
3 | Cc1cc(OCc2cc(F)cc3c2OC(C)(C)C3)ccc1CCC(=O)O [Example 46, 3-(4-((5-fluoro-2,2-dimethyl-2,3-dihydrobenzofuran-7-yl)methoxy)-2-methylphenyl)propanoic acid] | 113.55
4 | [2H]C([2H])(C(=O)O)C([2H])([2H])c1ccc(OCc2cc(F)cc3c2OC(C)(C)C3)c(F)c1CC [Example 243, 3-(2-ethyl-3-fluoro-4-((5-fluoro-2,2-dimethyl-2,3-dihydrobenzofuran-7-yl)methoxy)phenyl)-2,2,3,3-tetradeuteriopropanoic acid] | 155.23
5 | CCCc1cc(OCc2cc(Cl)cc3c2OC(C)(C)C3)c(F)cc1CCC(=O)O [Example 73, 3-(4-((5-chloro-2,2-dimethyl-2,3-dihydrobenzofuran-7-yl)methoxy)-5-fluoro-2-propylphenyl)propanoic acid] | 114.85
6 | CC1(C)Cc2c(COc3ccc4c(c3)CCC4CC(=O)O)ccc(F)c2O1 (centres unmarked) [Example 94, 2-(5-((7-fluoro-2,2-dimethyl-2,3-dihydrobenzofuran-4-yl)methoxy)-2,3-dihydro-1H-inden-1-yl)acetic acid] | 98.45
7 | CC1(C)Cc2cc(F)cc(COc3ccc(CCC(=O)O)c4c3CCC4)c2O1 [Example 63, 3-(7-((5-fluoro-2,2-dimethyl-2,3-dihydrobenzofuran-7-yl)methoxy)-2,3-dihydro-1H-inden-4-yl)propanoic acid] | 95.03
8 | CC1(C)Cc2cc(Cl)cc(COc3ccc4c(c3)CC[C@H]4CC(=O)O)c2O1 [Example 176, (S)-2-(5-((5-chloro-2,2-dimethyl-2,3-dihydrobenzofuran-7-yl)methoxy)-2,3-dihydro-1H-inden-1-yl)acetic acid] | 138.42
9 | CC1(C)Cc2cc(Cl)cc(COc3ccccc3CCC(=O)O)c2O1 [Example 250, 3-(2-((5-chloro-2,2-dimethyl-2,3-dihydrobenzofuran-7-yl)methoxy)phenyl)propanoic acid] | 10.23
10 | CC1(C)Cc2c(COc3ccc4c(c3)CC[C@@H]4CC(=O)O)cc(F)cc2O1 [Example 188, (R)-2-(5-((6-fluoro-2,2-dimethyl-2,3-dihydrobenzofuran-4-yl)methoxy)-2,3-dihydro-1H-inden-1-yl)acetic acid] | 104.04
11 | CC1(C)Cc2cc(F)cc(COc3ccc(CCCC(=O)O)cc3)c2O1 [Example 160, 4-(4-((5-fluoro-2,2-dimethyl-2,3-dihydrobenzofuran-7-yl)methoxy)phenyl)butanoic acid] | 172.13
12 | Cc1cc2cc(Cl)cc(COc3ccc(CC(C)C(=O)O)cc3F)c2o1 (centres unmarked) [Example 120, 3-(4-((5-chloro-2-methylbenzofuran-7-yl)methoxy)-3-fluorophenyl)-2-methylpropanoic acid] | 104.49
13 | [2H]C([2H])(Oc1ccc(CC(C)C(=O)O)cc1C(F)(F)F)c1cc(F)cc2c1OC(C)(C)C2 (centres unmarked) [Example 231, 3-(4-(dideuterio(5-fluoro-2,2-dimethyl-2,3-dihydrobenzofuran-7-yl)methoxy)-3-(trifluoromethyl)phenyl)-2-methylpropanoic acid] | 101.01
14 | CC(Cc1ccc(OCc2cc(Cl)cc3c2OC(C)(C)C3=O)c(F)c1)C(=O)O (centres unmarked) [Example 77, 3-(4-((5-chloro-2,2-dimethyl-3-oxo-2,3-dihydrobenzofuran-7-yl)methoxy)-3-fluorophenyl)-2-methylpropanoic acid] | 109.62
15 | [2H]C([2H])(Oc1ccc(CCC(=O)O)c(CC)c1F)c1cc(F)cc2c1OC(C)(C)C2 [Example 228, 3-(4-(dideuterio(5-fluoro-2,2-dimethyl-2,3-dihydrobenzofuran-7-yl)methoxy)-3-fluoro-2-ethylphenyl)propanoic acid] | 119.11
16 | CC1(C)Cc2cc(F)cc(COc3ccc4c(c3)CC[C@@H]4CC(=O)O)c2O1 [Example 178, (R)-2-(5-((5-fluoro-2,2-dimethyl-2,3-dihydrobenzofuran-7-yl)methoxy)-2,3-dihydro-1H-inden-1-yl)acetic acid] | 106
17 | Cc1cc2cccc(COc3c(F)cc(CC(C)C(=O)O)cc3F)c2s1 (centres unmarked) [Example 151, 3-(3,5-difluoro-4-((2-methylbenzo[b]thiophen-7-yl)methoxy)phenyl)-2-methylpropanoic acid] | 117.38
18 | CC1(C)Cc2cc(F)cc(COc3ccc4c(c3)CCCC4CC(=O)O)c2O1 (centres unmarked) [Example 153, 2-(6-((5-fluoro-2,2-dimethyl-2,3-dihydrobenzofuran-7-yl)methoxy)-1,2,3,4-tetrahydronaphthalen-1-yl)acetic acid] | 106.81
19 | O=C(O)C1CC1c1ccc(OCc2cc(F)cc3c2OC2(CCCC2)C3)cc1 (centres unmarked) [Example 165, 2-(4-((5-fluoro-3H-spiro[benzofuran-2,1′-cyclopentane]-7-yl)methoxy)phenyl)cyclopropanecarboxylic acid] | 158.08
20 | CC1(C)Cc2cc(F)cc(COc3ccc(CCC(=O)O)c(Cl)c3)c2O1 [Example 47, 3-(2-chloro-4-((5-fluoro-2,2-dimethyl-2,3-dihydrobenzofuran-7-yl)methoxy)phenyl)propanoic acid] | 111.18
21 | CC(Cc1cc(F)c(OCc2cccc3cn[nH]c23)c(F)c1)C(=O)O (centres unmarked) [Example 260, 3-(4-((1H-indazol-7-yl)methoxy)-3,5-difluorophenyl)-2-methylpropanoic acid] | 16.67

Same assay, conditions: human GPR120 stably expressing cells, eight concentrations from 0.00001 to 20 μM

Row | SMILES | EC50 [µM]
22 | CC(Cc1ccc(OCc2cc(-n3cnnn3)cc3c2OC(C)(C)C3)cc1)C(=O)O (centres unmarked) [Example 90, 3-(4-((2,2-dimethyl-5-(1H-tetrazol-1-yl)-2,3-dihydrobenzofuran-7-yl)methoxy)phenyl)-2-methylpropanoic acid] | 1 to 10
23 | Cc1cc(OCc2cc(F)cc3c2OC(C)(C)C3)ccc1CCC(=O)O [Example 46, 3-(4-((5-fluoro-2,2-dimethyl-2,3-dihydrobenzofuran-7-yl)methoxy)-2-methylphenyl)propanoic acid] | 1 to 10
24 | CC1(C)Cc2cc(F)cc(COc3ccc(CCC(=O)O)c4c3CCC4)c2O1 [Example 63, 3-(7-((5-fluoro-2,2-dimethyl-2,3-dihydrobenzofuran-7-yl)methoxy)-2,3-dihydro-1H-inden-4-yl)propanoic acid] | 1 to 10
25 | CC1(C)Cc2cc(F)cc(COc3cc(F)c(CCC(=O)O)c(F)c3)c2O1 [Example 49, 3-(2,6-difluoro-4-((5-fluoro-2,2-dimethyl-2,3-dihydrobenzofuran-7-yl)methoxy)phenyl)propanoic acid] | 1 to 10
26 | C[C@@H](Cc1ccc(OCc2cc(F)cc3c2OC(C)(C)C3)cc1)C(=O)O [Example 66, (S)-3-(4-((5-fluoro-2,2-dimethyl-2,3-dihydrobenzofuran-7-yl)methoxy)phenyl)-2-methylpropanoic acid] | 1 to 10
27 | CC1(C)Cc2cc(Cl)cc(COc3ccc(CCC(=O)O)c(Cl)c3)c2O1 [Example 52, 3-(2-chloro-4-((5-chloro-2,2-dimethyl-2,3-dihydrobenzofuran-7-yl)methoxy)phenyl)-propanoic acid] | 1 to 10
28 | CC1(C)Cc2cc(F)cc(COc3ccc(SCC(=O)O)cc3)c2O1 [Example 58, 2-((4-((5-fluoro-2,2-dimethyl-2,3-dihydrobenzofuran-7-yl)methoxy)phenyl)thio)-acetic acid] | 1 to 10
29 | CC1(C)Cc2cc(F)cc(COc3ccc(CCC(=O)O)c(Cl)c3)c2O1 [Example 47, 3-(2-chloro-4-((5-fluoro-2,2-dimethyl-2,3-dihydrobenzofuran-7-yl)methoxy)phenyl)propanoic acid] | 1 to 10
